In patent US20230407243A1, “GENETIC PLATFORM TO INVESTIGATE THE FUNCTIONS OF BACTERIAL DRUG EFFLUX PUMPS” (priority 2022, published 2023):

Experiments:
Assay in all cases: MIC susceptibility profiling, porinated efflux platform
Assay type in all cases: cell-based, Escherichia coli
EKO-35 araC::macAB Pore = settings: for Fold changes of MICs: EKO-35 araC::macAB Pore compared to EKO-35-Pore; for Minimum inhibitory concentration / MIC: EKO-35 araC::macAB Pore, technical duplicate; for MIC: Escherichia coli, read-out: Minimum inhibitory concentration
In short: (§1)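 MIC values come from background-corrected OD600 readings (pre-incubation OD subtracted) after 18 h at 37 °C and 900 rpm in MHB II. Compounds were tested in duplicate as 2-fold dilutions. The inoculum came from 18 h LB cultures adjusted to OD600 ~1.0 and diluted 1/2000, and the pore-bearing strains were vancomycin-checked beforehand.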

EKO-35 araC::acrD Pore = settings: for Fold changes of MICs: EKO-35 araC::acrD Pore compared to EKO-35-Pore; for Minimum inhibitory concentration, EKO-35 araC::acrD Pore / MIC: Table 14A, porinated, technical duplicate; for MIC: Escherichia coli, read-out: Minimum inhibitory concentration, EKO-35 araC::acrD Pore
In short: as §1

EKO-35 araC::acrEF Pore = settings: for Fold changes of MICs: EKO-35 araC::acrEF Pore compared to EKO-35-Pore; for Minimum inhibitory concentration, EKO-35 araC::acrEF Pore / MIC: Table 14A, porinated, technical duplicate; for MIC: Escherichia coli, read-out: Minimum inhibitory concentration, EKO-35 araC::acrEF Pore; for efflux pump-mediated resistance vs EKO-35-Pore: AcrEF with the pore
In short: as §1

EKO-35 araC::emrAB Pore = settings: for Fold changes of MICs: EKO-35 araC::emrAB Pore compared to EKO-35-Pore; for Minimum inhibitory concentration / MIC: EKO-35 araC::emrAB Pore, technical duplicate; for MIC: Escherichia coli, read-out: Minimum inhibitory concentration
In short: as §1

[1] = system: EKO-35 araC::acrBD408A Pore; settings: for Fold changes of MICs: EKO-35 araC::acrBD408A Pore compared to EKO-35-Pore; for Minimum inhibitory concentration / MIC: EKO-35 araC::acrBD408A Pore, technical duplicate; for MIC: Escherichia coli, read-out: Minimum inhibitory concentration
In short: as §1

EKO-35 araC::emrKY Pore = settings: for Fold changes of MICs: EKO-35 araC::emrKY Pore compared to EKO-35-Pore; for Minimum inhibitory concentration / MIC: EKO-35 araC::emrKY Pore, technical duplicate; for MIC: Escherichia coli, read-out: Minimum inhibitory concentration
In short: as §1

EKO-35 araC::mexCD Pore = settings: for Fold changes of MICs: EKO-35 araC::mexCD Pore compared to EKO-35-Pore; for Minimum inhibitory concentration / MIC: EKO-35 araC::mexCD Pore, technical duplicate; for MIC: Escherichia coli, read-out: Minimum inhibitory concentration; for efflux pump-mediated resistance vs EKO-35-Pore: MexCD, OM compromised
In short: as §1

SMILES | Fold changes of MICs (EKO-35 araC::macAB Pore) [fold] | Fold changes of MICs (EKO-35 araC::acrD Pore) [fold] | Fold changes of MICs (EKO-35 araC::acrEF Pore) [fold] | Fold changes of MICs (EKO-35 araC::emrAB Pore) [fold] | Fold changes of MICs [1] [fold] | Fold changes of MICs (EKO-35 araC::emrKY Pore) [fold] | Fold changes of MICs (EKO-35 araC::mexCD Pore) [fold] | MIC (EKO-35 araC::macAB Pore) [µg/mL] | MIC (EKO-35 araC::acrD Pore) [µg/mL] | MIC (EKO-35 araC::acrEF Pore) [µg/mL] | MIC (EKO-35 araC::emrAB Pore) [µg/mL] | MIC [1] [µg/mL] | MIC (EKO-35 araC::emrKY Pore) [µg/mL] | MIC (EKO-35 araC::mexCD Pore) [µg/mL] | further results
Nc1ccccc1SCc1nc(-c2ccc(Cl)cc2)no1 [compound 16] | 1 | 1 | 16 | 16 | 1 | 1 | 16 |  |  |  |  |  |  |  | Minimum inhibitory concentration (EKO-35 araC::macAB Pore): 5 µg/mL; Minimum inhibitory concentration, EKO-35 araC::acrD Pore (EKO-35 araC::acrD Pore): 5 µg/mL; Minimum inhibitory concentration, EKO-35 araC::acrEF Pore (EKO-35 araC::acrEF Pore): 80 µg/mL; Minimum inhibitory concentration (EKO-35 araC::emrAB Pore): 80 µg/mL; Minimum inhibitory concentration [1]: 5 µg/mL; Minimum inhibitory concentration (EKO-35 araC::emrKY Pore): 2.5 µg/mL; Minimum inhibitory concentration (EKO-35 araC::mexCD Pore): 80 µg/mL
O=C(Nc1ccccc1C(=O)Nc1nnc(C(F)(F)F)s1)c1ccccc1Cl [compound 19] | 1 | 1 | 1 | 1 |  | 1 | 1 |  |  |  |  |  |  |  | Minimum inhibitory concentration (EKO-35 araC::macAB Pore): 320 µg/mL; Minimum inhibitory concentration, EKO-35 araC::acrD Pore (EKO-35 araC::acrD Pore): 320 µg/mL; Minimum inhibitory concentration, EKO-35 araC::acrEF Pore (EKO-35 araC::acrEF Pore): 320 µg/mL; Minimum inhibitory concentration (EKO-35 araC::emrAB Pore): 320 µg/mL; Minimum inhibitory concentration [1]: 320 µg/mL; Minimum inhibitory concentration (EKO-35 araC::emrKY Pore): 320 µg/mL; Minimum inhibitory concentration (EKO-35 araC::mexCD Pore): 320 µg/mL
COc1cccc2c1C(=O)c1c(O)c3c(c(O)c1C2=O)C[C@@](O)(C(C)=O)C[C@@H]3O[C@H]1C[C@H](N)[C@H](O)[C@H](C)O1 [daunorubicin] | 2 | 2 | 32 | 2 | 1 | 1 | 16 | 1.56 | 1.56 | 25 | 1.56 | 0.781 | 0.781 | 12.5 | 
COc1cccc2c1C(=O)c1c(O)c3c(c(O)c1C2=O)C[C@@](O)(C(=O)CO)C[C@@H]3O[C@H]1C[C@H](N)[C@H](O)[C@H](C)O1 [doxorubicin] | 1 | 1 | 16 | 1 | 1 | 1 | 4 | 0.781 | 0.781 | 12.5 | 0.781 | 0.781 | 0.781 | 3.12 | 
C[C@@H]1O[C@@H]1P(=O)(O)O [fosfomycin] | 1 | 1 | 2 | 2 | 1 | 1 | 2 | 0.781 | 0.781 | 1.56 | 1.56 | 0.781 | 0.781 | 1.56 | 
NC[C@H]1O[C@H](O[C@H]2[C@H](O)[C@@H](O[C@H]3O[C@H](CO)[C@@H](O)[C@H](N)[C@H]3O)[C@H](N)C[C@@H]2N)[C@H](O)[C@@H](O)[C@@H]1O [kanamycin] | 2 | 1 | 1 | 1 | 1 | 1 | 1 |  | 1.56 | 1.56 | 1.56 | 0.781 | 1.56 | 1.56 | 
CN(C)c1ccc(O)c2c1C[C@H]1C[C@H]3[C@H](N(C)C)C(O)=C(C(N)=O)C(=O)[C@@]3(O)C(O)=C1C2=O [minocycline] | 1 | 2 | 2 | 1 | 1 | 1 | 1 | 0.049 | 0.098 | 0.098 | 0.049 | 0.049 | 0.049 | 0.049 | 
CCn1cc(C(=O)O)c(=O)c2ccc(C)nc21 [nalidixic acid] | 1 | 1 | 2 | 8 | 1 | 1 | 2 | 1.25 | 1.25 | 2.5 | 10 | 1.25 | 1.25 | 2.5 | efflux pump-mediated resistance vs EKO-35-Pore (EKO-35 araC::acrEF Pore): impacted the ability of AcrEF to confer resistance
CCn1cc(C(=O)O)c(=O)c2cc(F)c(N3CCNCC3)cc21 [norfloxacin] | 2 | 2 | 4 | 2 | 2 | 1 | 4 | 0.02 | 0.02 | 0.039 | 0.02 | 0.02 | 0.01 | 0.039 | efflux pump-mediated resistance vs EKO-35-Pore (EKO-35 araC::mexCD Pore): increased resistance
COc1ccc(C[C@H](N)C(=O)N[C@H]2[C@@H](O)[C@H](n3cnc4c(N(C)C)ncnc43)O[C@@H]2CO)cc1 [puromycin] | 1 | 1 | 4 | 1 | 1 | 2 | 2 | 0.781 | 0.781 | 3.12 | 0.781 | 0.781 | 1.56 | 1.56 | efflux pump-mediated resistance vs EKO-35-Pore (EKO-35 araC::mexCD Pore): no longer associated MexCD with resistance
CO[C@H]1/C=C/O[C@@]2(C)Oc3c(C)c(O)c4c(O)c(c(/C=N/N5CCN(C)CC5)c(O)c4c3C2=O)NC(=O)/C(C)=C\C=C\[C@H](C)[C@H](O)[C@@H](C)[C@@H](O)[C@@H](C)[C@H](OC(C)=O)[C@@H]1C [rifampicin] |  |  |  |  |  |  |  | 0.391 | 0.391 | 0.391 | 0.195 | 0.195 | 0.391 | 0.391 | 
C[C@H](CCC(=O)NCCS(=O)(=O)[O-])[C@H]1CC[C@H]2[C@@H]3CC[C@@H]4C[C@H](O)CC[C@]4(C)[C@H]3C[C@H](O)[C@]12C.[Na+] [sodium taurodeoxycholate] | 1 | 4 | 4 | 2 | 1 | 1 | 4 |  |  |  |  |  |  |  | Minimum inhibitory concentration (EKO-35 araC::macAB Pore): 250 µg/mL; Minimum inhibitory concentration, EKO-35 araC::acrD Pore (EKO-35 araC::acrD Pore): 1000 µg/mL; efflux pump-mediated resistance vs EKO-35-Pore (EKO-35 araC::acrEF Pore): increased resistance; Minimum inhibitory concentration, EKO-35 araC::acrEF Pore (EKO-35 araC::acrEF Pore): 1000 µg/mL; Minimum inhibitory concentration (EKO-35 araC::emrAB Pore): 500 µg/mL; Minimum inhibitory concentration [1]: 250 µg/mL; Minimum inhibitory concentration (EKO-35 araC::emrKY Pore): 250 µg/mL; Minimum inhibitory concentration (EKO-35 araC::mexCD Pore): 1000 µg/mL; efflux pump-mediated resistance vs EKO-35-Pore (EKO-35 araC::mexCD Pore): increased resistance
CN(C)[C@@H]1C(O)=C(C(N)=O)C(=O)[C@@]2(O)C(O)=C3C(=O)c4c(O)cccc4[C@@](C)(O)[C@H]3C[C@@H]12 [tetracycline] | 1 | 1 | 1 | 1 | 1 | 1 | 1 | 0.195 | 0.195 | 0.195 | 0.195 | 0.195 | 0.195 | 0.195 | 
COc1cc(Cc2cnc(N)nc2N)cc(OC)c1OC [trimethoprim] | 1 | 1 | 1 | 2 | 1 | 2 | 1 |  |  |  |  |  |  |  | efflux pump-mediated resistance vs EKO-35-Pore (EKO-35 araC::acrEF Pore): impacted the ability of AcrEF to confer resistance
